# According to paper PMC6544370 (Nature, 2019):
# Assays:
# Em-CdnE = molecular target: T1, Em-CdnE (Elizabethkingia meningoseptica, UniProt P0DSP2); assay: X-ray crystal structure; assay type: binding
# T1 sequence (P0DSP2 1-292): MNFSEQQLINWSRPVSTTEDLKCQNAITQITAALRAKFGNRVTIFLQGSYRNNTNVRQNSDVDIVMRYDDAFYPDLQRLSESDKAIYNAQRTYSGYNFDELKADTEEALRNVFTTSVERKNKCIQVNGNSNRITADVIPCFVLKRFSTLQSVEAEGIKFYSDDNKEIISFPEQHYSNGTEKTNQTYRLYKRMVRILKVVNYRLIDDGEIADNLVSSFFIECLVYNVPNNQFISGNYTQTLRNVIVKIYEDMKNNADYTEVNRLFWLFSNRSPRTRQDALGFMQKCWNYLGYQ
# Rm-CdnE = molecular target: T2, Rm-CdnE (Rhodothermus marinus, UniProt G2SLH8); assay: X-ray crystal structure; assay type: binding; settings: with Upnpp and MgCl2; nonhydrolyzable substrate analogue
# T2 sequence (G2SLH8 1-288): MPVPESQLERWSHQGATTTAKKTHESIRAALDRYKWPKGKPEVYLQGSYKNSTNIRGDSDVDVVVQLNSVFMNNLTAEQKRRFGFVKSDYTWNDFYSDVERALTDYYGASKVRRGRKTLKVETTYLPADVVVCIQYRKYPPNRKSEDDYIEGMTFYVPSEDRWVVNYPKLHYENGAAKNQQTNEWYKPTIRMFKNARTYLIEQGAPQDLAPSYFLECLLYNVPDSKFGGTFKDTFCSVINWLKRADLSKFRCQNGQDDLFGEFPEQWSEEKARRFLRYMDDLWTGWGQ
# Ec-CdnD02 (CD-NTase038) = Ec-CdnD02 (CD-NTase038) (Enterobacter hormaechei, UniProt P0DSP4); settings: with GTP; pH 9.4, 5 mM Mg(OAc)2, 37 °C; product cAAG
# Chain of Ec-CdnD02 (CD-NTase038) (P0DSP4 whole entry): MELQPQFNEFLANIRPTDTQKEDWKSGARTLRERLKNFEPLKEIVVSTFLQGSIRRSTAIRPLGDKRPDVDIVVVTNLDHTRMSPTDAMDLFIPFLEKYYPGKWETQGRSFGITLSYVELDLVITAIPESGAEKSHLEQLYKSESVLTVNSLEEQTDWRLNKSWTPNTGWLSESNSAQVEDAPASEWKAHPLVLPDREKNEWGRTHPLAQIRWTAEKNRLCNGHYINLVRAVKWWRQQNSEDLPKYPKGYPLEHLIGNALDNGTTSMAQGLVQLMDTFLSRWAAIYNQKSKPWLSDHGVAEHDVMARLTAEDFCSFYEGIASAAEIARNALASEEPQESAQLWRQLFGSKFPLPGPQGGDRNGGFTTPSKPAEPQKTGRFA
# [1] = molecular target: T3, STING (Stimulator of Interferon Genes) (Mus musculus, UniProt Q3TBT3); assay: native PAGE gel shift; assay type: binding; settings: pH 7.5, 60 mM KCl, 5 mM Mg(OAc)2; labelled compound; 4-100 μM protein
# T3 sequence (Q3TBT3 139-378 limits assumed): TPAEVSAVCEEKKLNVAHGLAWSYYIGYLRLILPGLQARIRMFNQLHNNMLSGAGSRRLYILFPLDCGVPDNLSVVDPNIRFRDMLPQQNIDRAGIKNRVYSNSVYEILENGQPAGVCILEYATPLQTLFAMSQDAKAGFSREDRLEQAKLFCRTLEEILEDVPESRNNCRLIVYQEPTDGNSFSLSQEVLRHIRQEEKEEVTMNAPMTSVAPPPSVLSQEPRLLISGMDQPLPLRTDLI
smiles,measurement,setting,value
Nc1nc2c(ncn2[C@@H]2O[C@H](COP(=O)(O)OP(=O)(O)OP(=O)(O)O)[C@@H](O)[C@H]2O)c(=O)[nH]1 [GTP],X-ray crystal structure,Em-CdnE; with Apcpp and Mg2+,Crystal structure of Em-CdnE in complex with GTP and nonhydrolyzable ATP
Nc1ncnc2c1ncn2[C@@H]1O[C@H](COP(=O)(O)CP(=O)(O)OP(=O)(O)O)[C@@H](O)[C@H]1O [Apcpp],X-ray crystal structure,Rm-CdnE,structure of Rm-CdnE in complex with nonhydrolyzable ATP and UTP
same,X-ray crystal structure,"Em-CdnE; with GTP and Mg2+, nonhydrolyzable substrate analogue",Crystal structure of Em-CdnE in complex with GTP and nonhydrolyzable ATP
Nc1ncnc2c1ncn2[C@@H]1O[C@H](COP(=O)(O)OP(=O)(O)OP(=O)(O)O)[C@@H](O)[C@H]1O [ATP],"radiolabelled NTP, silica TLC",Ec-CdnD02 (CD-NTase038),ATP and GTP were necessary and sufficient for product formation
Nc1nc2c(ncn2[C@@H]2O[C@@H]3COP(=O)(O)O[C@H]4[C@@H](O)[C@H](n5cnc6c(N)ncnc65)O[C@@H]4COP(=O)(O)O[C@H]3[C@H]2O)c(=O)[nH]1 [3′3′ cGAMP],native PAGE gel shift,[1],STING bound to all four cyclic dipurine molecules with high affinity
Nc1nc2c(ncn2[C@@H]2O[C@@H]3COP(=O)(O)O[C@H]4[C@@H](O)[C@H](n5cnc6c(=O)[nH]c(N)nc65)O[C@@H]4COP(=O)(O)O[C@H]3[C@H]2O)c(=O)[nH]1 [c-di-GMP],native PAGE gel shift,[1],STING bound to all four cyclic dipurine molecules with high affinity
